Assays:
Format in all cases: biochemical
[1] = biological target: T1, PGPH activity of purified bovine erythrocyte 20S proteasome (Bos taurus, UniProt Q3MHN0); assay: Enzyme kinetic assay, PGPH activity (Z-LLE-AMC); conditions: for selectivity for the PGPH activity: in words, data not shown for Glu compounds; for kobs/[I] PGPH: Table 3; for kobs/[I] for PGPH activity using Z-LLE-AMC: Examples 9 and 10; for kinact/KI: pH 8, Table 4, inhibitor concentration range in parentheses, read-out: kassoc = kobs/[I] PGPH activity
T1 construct: from tissue; host or cells: bovine erythrocytes (red blood cells)
Protocol: We investigated the potency of inhibitors of various length. Mono-, di-,tri- and tetraleucine α′,β′-epoxides were ranked by determination of the kobs/[I] values for inhibition of the chymotrypsin-like, trypsin-like, and PGPH activities of purified bovine erythrocyte 20S proteasome. Enzyme kinetic assays were performed as described in Example 2.
(§1) Purified bovine erythrocyte proteasome was enzymatically assayed using a variety of different substrates and inhibitors. In order to evaluate the rates of proteolytic inactivation by inhibitors, kassociation (kobs/[I]) values were determined using fluorogenic peptide substrates over a range of inhibitor concentrations.

[2] = biological target: T2, chymotrypsin-like activity of purified bovine erythrocyte 20S proteasome (Bos taurus, UniProt Q32KL2); assay: Enzyme kinetic assay, chymotrypsin-like activity (Suc-LLVY-AMC); conditions: for kobs/[I] Chymotrypsin-like: Table 3; for kobs/[I] for chymotryptic-like activity using Suc-LLVY-AMC: Examples 9 and 10, in M-1s-1; for kinact/KI: pH 8, Table 4, inhibitor concentration range in parentheses, read-out: kassoc = kobs/[I] Chymotrypsin-like activity
T2 construct: from tissue; host or cells: bovine erythrocytes (red blood cells)
From the text: (§2) We investigated the potency of inhibitors of various length. Mono-, di-,tri- and tetraleucine α′,β′-epoxides were ranked by determination of the kobs/[I] values for inhibition of the chymotrypsin-like, trypsin-like, and PGPH activities of purified bovine erythrocyte 20S proteasome.
as §1

[3] = biological target: T3, trypsin-like activity of purified bovine erythrocyte 20S proteasome (Bos taurus, UniProt Q2TBP0); assay: Enzyme kinetic assay, trypsin-like activity (Boc-LRR-AMC); conditions: for kobs/[I] for tryptic-like activity using Boc-LRR-AMC: Examples 9 and 10; for kinact/KI: pH 8, Table 4, inhibitor concentration range in parentheses, read-out: kassoc = kobs/[I] Trypsin-like activity
T3 construct: from tissue; host or cells: bovine erythrocytes (red blood cells)
From the text: as §2, §1

Row | kobs/[I] for chymotryptic-like activity using Suc-LLVY-AMC [2] | kobs/[I] for PGPH activity using Z-LLE-AMC [1] | kobs/[I] for tryptic-like activity using Boc-LRR-AMC [3] | Molecule | also measured
1 | 31,000 | not measurable | not measurable | CC(=O)N[C@@H](CC(C)C)C(=O)N[C@@H](Cc1cccc2ccccc12)C(=O)N[C@@H](CC(C)C)C(=O)N[C@@H](CC(C)C)C(=O)[C@@]1(C)CO1 [P3 1-naphthyl] | 
2 | 29,000 | not measurable | not measurable | CC(=O)N[C@@H](Cc1cccc2ccccc12)C(=O)N[C@@H](CC(C)C)C(=O)N[C@@H](CC(C)C)C(=O)N[C@@H](CC(C)C)C(=O)[C@@]1(C)CO1 [P4 I -naphthyl] | 
3 | 63,000 | 50 | 5.4 M⁻¹ s⁻¹ | CC(=O)N[C@@H](CCc1ccccc1)C(=O)N[C@@H](CC(C)C)C(=O)N[C@@H](CC(C)C)C(=O)N[C@@H](CC(C)C)C(=O)[C@@]1(C)CO1 [P4 methylphenyl] | 
4 | 23,000 | not measurable | not measurable | CC(=O)N[C@@H](Cc1ccc(C(=O)c2ccccc2)cc1)C(=O)N[C@@H](CC(C)C)C(=O)N[C@@H](CC(C)C)C(=O)N[C@@H](CC(C)C)C(=O)[C@@]1(C)CO1 [P4 p-benzoylphenyl] | 
5 | 37,000 | 78 | 5.5 M⁻¹ s⁻¹ | CC(=O)N[C@@H](Cc1ccccc1)C(=O)N[C@@H](CC(C)C)C(=O)N[C@@H](CC(C)C)C(=O)N[C@@H](CC(C)C)C(=O)[C@@]1(C)CO1 [P4 phenyl] | 

Second part, the molecule before the results:

Row | Molecule | kobs/[I] for chymotryptic-like activity using Suc-LLVY-AMC [2] | kobs/[I] for PGPH activity using Z-LLE-AMC [1] | kobs/[I] for tryptic-like activity using Boc-LRR-AMC [3] | also measured
6 | CC(=O)N1CCC[C@H]1C(=O)N[C@@H](Cc1ccccc1)C(=O)N[C@@H](CCC(=O)O)C(=O)[C@@]1(C)CO1 [Ac-Pro-Phe-Glu-α′,β′-epoxyketone] |  |  |  | selectivity for the PGPH activity [1]: did not display any significant selectivity
7 | CC(=O)N1CCC(C(=O)N2CCC[C@H]2C(=O)N[C@@H](Cc2ccccc2)C(=O)N[C@@H](CC(C)C)C(=O)[C@@]2(C)CO2)CC1 [N-acetyl-piperidinecarbonyl-PFL-Ex] |  |  |  | kobs/[I] Chymotrypsin-like [2]: 31.2 ± 0.6 M⁻¹ s⁻¹; kobs/[I] PGPH [1]: 45.3 ± 2.2 M⁻¹ s⁻¹
8 | CC(=O)N[C@@H](CC(C)C)C(=O)N[C@@H](CC(C)C)C(=O)N[C@@H](Cc1cccc2ccccc12)C(=O)N[C@@H](CC(C)C)C(=O)[C@@]1(C)CO1 [P2 1-naphthyl] | 29,000 | not measurable | not measurable | 
9 | CC(C)C[C@H](NC(=O)[C@@H](N)CCc1ccccc1)C(=O)N[C@@H](Cc1ccccc1)C(=O)N[C@@H](CC(C)C)C(=O)[C@@]1(C)CO1 [compound 18] | 5200 |  | 580 M⁻¹ s⁻¹ | kinact/KI [2]: 5200 M⁻¹ s⁻¹; kinact/KI [1]: 11 M⁻¹ s⁻¹; kinact/KI [3]: 580 M⁻¹ s⁻¹
10 | CC(C)[C@H](O)[C@@]12NC(=O)[C@H](C)[C@@H]1OC2=O [drawing 17, reference compound] |  |  |  | kinact/KI [2]: 7400 M⁻¹ s⁻¹; kinact/KI [1]: 47 M⁻¹ s⁻¹; kinact/KI [3]: 68 M⁻¹ s⁻¹
11 | CC(C)C[C@H](NC(=O)[C@H](Cc1ccccc1)NC(=O)c1cnccn1)B(O)O [reference compound] |  |  |  | kinact/KI [2]: 53000 M⁻¹ s⁻¹; kinact/KI [1]: 3200 M⁻¹ s⁻¹
12 | CC(C)C[C@@H](/C=C/S(C)(=O)=O)NC(=O)[C@H](CC(C)C)NC(=O)[C@H](CC(C)C)NC(=O)Cc1cc(N)c(O)c(I)c1 [reference compound] |  |  |  | kinact/KI [2]: 5000 M⁻¹ s⁻¹; kinact/KI [1]: 4 M⁻¹ s⁻¹; kinact/KI [3]: 3.4 M⁻¹ s⁻¹
13 | isooctanoyl-Ser-Glu-α′,β′-epoxyketone |  |  |  | selectivity for the PGPH activity [1]: poor PGPH-selective inhibitors
14 | isooctanoyl-Ser-Leu-α′,β′-epoxyketone [Eponemycin, reference compound] |  |  |  | kobs/[I] Chymotrypsin-like [2]: 58 ± 14 M⁻¹ s⁻¹; kobs/[I] PGPH [1]: 175 ± 2 M⁻¹ s⁻¹; selectivity for the PGPH activity [1]: modest selectivity toward the PGPH activity; kobs/[I] Trypsin-like ([3]; Table 3): 17 ± 3 M⁻¹ s⁻¹
15 | isooctanoyl-Thr-Glu-α′,β′-epoxyketone |  |  |  | selectivity for the PGPH activity [1]: poor PGPH-selective inhibitors

From patent US7476650B2, “Enzyme inhibition” (Yale University, priority 1999, dated 2009)
